According to the supplement of paper PMC6965134:
± gives the standard deviation of the averaged measurements.

Experiment: TIMS collisional cross section (CCS, N2) of the lipid ion; higher = larger ion cross section
Details: ionization mode: positive, one isomer drawn

| SMILES | TIMS collisional cross section (sample type: Liver) | TIMS collisional cross section (sample type: HeLa) | TIMS collisional cross section (sample type: plasma) |
| --- | --- | --- | --- |
| CCCC/C=C\CCCCCCCC(=O)OC[C@H](COC(=O)CCCCCCC/C=C\CCCCCCC)OC(=O)CCCCCCC/C=C\CCCCCC [TG 14:1_16:1_17:1] (ion (formula + adduct): [C50H90O6+NH4] 1+) | 305.4 Å² | – | – |
| CCCCC/C=C\C/C=C\CCCCCCCCCC(=O)OC[C@@H](O)COP(=O)(O)OC[C@@H](O)CO [LPG 20:2] (ion (formula + adduct): [C26H49O9P+H] 1+) | 230.1 Å² | – | – |
| CC/C=C\C/C=C\C/C=C\C/C=C\C/C=C\CCCC(=O)OC[C@@H](COC(=O)CCCCCCCCCCCCCCC)OC(=O)CCCCCCCCCCCCCCC [TG 16:0_16:0_20:5] (ion (formula + adduct): [C55H96O6+Na] 1+) | 314.5 Å² | – | – |
| CCCCC/C=C\C/C=C\C/C=C\C/C=C\CCCCCC(=O)O[C@@H](CO)COC(=O)CCCCCCCCCCCCCCC [DG 16:0_22:4_0:0] (ion (formula + adduct): [C41H72O5+NH4] 1+) | 270.8 Å² | 271.2 Å² | – |
| CCCCC/C=C\C/C=C\CCCCCCCC(=O)O[C@H](COC(=O)CCCCCCCCCCCCCCC)COP(=O)(O)OCCN [PE 16:0_18:2] (ion (formula + adduct): [C39H74NO8P+H] 1+) | 272.9 Å² | – | 273 Å² |
| CC/C=C\C/C=C\C/C=C\CCCCCCCC(=O)OC[C@@H](COC(=O)CCCCCCC/C=C\CCCCCC)OC(=O)CCCCCCC/C=C\CCCCCCC [TG 16:1_17:1_18:3] (ion (formula + adduct): [C54H94O6+NH4] 1+) | – | 314.8 Å² | – |
| CC/C=C\C/C=C\C/C=C\C/C=C\C/C=C\C/C=C\CCC(=O)OC[C@@H](COC(=O)CCCCCCCCCCCCCCC)OC(=O)CCCC/C=C\C/C=C\C/C=C\C/C=C\CC [TG 16:0_18:4_22:6] (ion (formula + adduct): [C59H94O6+NH4] 1+) | 322.1 Å² | – | – |
| CCCCC/C=C\C/C=C\CCCCCCCC(=O)OC[C@@H](COC(=O)CCCCCCC/C=C\CCCCC)OC(=O)CCCCCCCCCCCCCCC [TG 15:1_16:0_18:2] (ion (formula + adduct): [C52H94O6+NH4] 1+) | – | – | 311 Å² |
| CC/C=C\C/C=C\C/C=C\CCCCCCCC(=O)O[C@@H](COC(=O)CCC/C=C\C/C=C\C/C=C\C/C=C\CCCCC)COC(=O)CCCCCCC/C=C\C/C=C\CCCCC [TG 18:2_18:3_20:4] (ion (formula + adduct): [C59H96O6+NH4] 1+) | 321.6 Å² | – | 321.6 Å² |
| CCCCC/C=C\C/C=C\C/C=C\C/C=C\C/C=C\CCC(=O)O[C@H](COC(=O)CCCCCCCCCCCCCCC)COP(=O)([O-])OCC[N+](C)(C)C [PC 16:0@_22:5] (ion (formula + adduct): [C46H82NO8P+H] 1+) | 293.8 Å² | – | – |
| C12CC[C@@]3([H])C(C)(C)[C@@H](O)CC[C@]3(C)C=1CC[C@]1(C)[C@@]([H])([C@@](C)([H])CC/C=C(\C)/C)CC[C@@]21C=O [32-oxolanosterol] (ion (formula + adduct): [C30H48O2+H] 1+) | – | 211.6 Å² | – |
| CCCCC/C=C\C/C=C\CCCCCCCCCC(=O)O[C@H](COC(=O)CCCCCCCCCCCCCCCCC)COP(=O)([O-])OCC[N+](C)(C)C [PC 18:0_20:2@] (ion (formula + adduct): [C46H88NO8P+H] 1+) | 297.5 Å² | – | – |
| CC/C=C\C/C=C\C/C=C\C/C=C\C/C=C\C/C=C\CCC(=O)O[C@H](COC(=O)CCCCCCCCCCCCCCC)COP(=O)(O)OCCN [PE 16:0@_22:6] (ion (formula + adduct): [C43H74NO8P+H] 1+) | – | – | 279.1 Å² |
| CC/C=C\C/C=C\C/C=C\C/C=C\C/C=C\C/C=C\CCC(=O)OC[C@@H](COC(=O)CCCCCCC/C=C\CCCCCC)OC(=O)CCCCC/C=C\C/C=C\C/C=C\C/C=C\C/C=C\CC [TG 16:1_22:5_22:6] (ion (formula + adduct): [C63H98O6+NH4] 1+) | – | 332.4 Å² | – |
| CCCCC/C=C\C/C=C\C/C=C\C/C=C\CCCC(=O)OC[C@H](COP(=O)(O)OCCN)OC(=O)CCC/C=C\C/C=C\C/C=C\C/C=C\CCCCC [PE 20:4_20:4] (ion (formula + adduct): [C45H74NO8P+H] 1+) | 279.6 Å² | 280.6 Å² | – |
| CCCCCCCC/C=C\CCCCCCCCCCCC(=O)OC[C@@H](COC(=O)CCCCCCC/C=C\CCCCCCCC)OC(=O)CCCCCCCCCCC/C=C\CCCCCCCC [TG 18:1_22:1_22:1] (ion (formula + adduct): [C65H120O6+NH4] 1+) | – | 349.2 Å² | – |

| SMILES | TIMS collisional cross section (sample type: Liver) | TIMS collisional cross section (sample type: HeLa) | TIMS collisional cross section (sample type: plasma) |
| --- | --- | --- | --- |
| CC/C=C\C/C=C\C/C=C\C/C=C\C/C=C\C/C=C\CCC(=O)OC[C@@H](O)COP(=O)(O)OCCN [LPE 22:6] (ion (formula + adduct): [C27H44NO7P+H] 1+) | 218 Å² | 218.95 ± 0.071 Å² | 218.3 ± 0.85 Å² |
| CC/C=C\C/C=C\C/C=C\C/C=C\C/C=C\CCCCCC(=O)OC[C@@H](COC(=O)CCCCCCCCCCCCCCC)OC(=O)CCCCCCC/C=C\CCCCCCC [TG 16:0_17:1_22:5] (ion (formula + adduct): [C58H100O6+NH4] 1+) | – | 325.4 Å² | – |
| CCCCCCCC/C=C\CCCCCCCCCC(=O)OC[C@@H](COC(=O)CCCCCCC/C=C\CCCCCCCC)OC(=O)CCCCCCCCCCCCCCCCCC [TG 18:1_19:0_20:1] (ion (formula + adduct): [C60H112O6+NH4] 1+) | 337 Å² | 336.7 Å² | – |
| CCCCCC/C=C/CCCCCCCCCC(=O)OC[C@@H](COC(=O)CCCCCCCCCCCCCCC)OC(=O)CCCCCCCCCCCCCCC [TG 16:0_16:0_18:1] (ion (formula + adduct): [C53H100O6+NH4] 1+) | – | 318.75 ± 0.21 Å² | 318.4 Å² |
| CCCCCCCCCCCCC/C=C/[C@@H](O)[C@H](CO)NC(=O)CCCCCCCCCCCCCCCCCCCCCCC [Cer d18:1_24:0@] (ion (formula + adduct): [C42H83NO3+H] 1+) | 281.2 Å² | – | 281.1 Å² |
| CCCCCCCC/C=C\CCCCCCCCCCCC(=O)OC[C@@H](COC(=O)CCCCCCCCCCCCCCCCC)OC(=O)CCCCCCCCCCCCCCCCCCCCC [TG 18:0_22:0_22:1] (ion (formula + adduct): [C65H124O6+NH4] 1+) | – | – | 352.8 Å² |
| CCCCC/C=C\C/C=C\C/C=C\CCCCC(=O)O[C@H](COC(=O)CCCCCCCCCCCCCCC)COP(=O)([O-])OCC[N+](C)(C)C [PC 16:0_18:3] (ion (formula + adduct): [C42H78NO8P+H] 1+) | 282 Å² | – | 282 Å² |
| CCCCC/C=C\C/C=C\C/C=C\C/C=C\CCCC(=O)O[C@H](COCCCCCCCC/C=C\CCCCCCCC)COP(=O)([O-])OCC[N+](C)(C)C [PC O- 18:1@_20:4] (ion (formula + adduct): [C46H84NO7P+H] 1+) | – | – | 294 Å² |
| CCCCC/C=C\C/C=C\C/C=C\C/C=C\CCCC(=O)OC[C@@H](COC(=O)CCCCCCCCCCCCCCC)OC(=O)CCCCCCCCCCCCCCCCCCC [TG 16:0_20:0_20:4] (ion (formula + adduct): [C59H106O6+NH4] 1+) | 332.3 Å² | – | – |
| C1C[C@H](O)C(CO)[C@]2([H])CCC3=C([C@]21C)CC[C@]1(C)[C@@]([H])([C@H](C)CC/C=C(/C)\C)CC[C@]13[H] (some centres undefined) [zymosterol intermediate 1a] (ion (formula + adduct): [C28H46O2+H] 1+) | 219 Å² | – | – |
| CCCCCCCC/C=C\CCCCCCCCCCCC(=O)N[C@@H](COP(=O)([O-])OCC[N+](C)(C)C)[C@H](O)/C=C/CCCCCCCCCCCCC [SM d18:1_22:1@] (ion (formula + adduct): [C45H89N2O6P+H] 1+) | 299.3 Å² | – | 299 Å² |
| CCCCC/C=C\C/C=C\C/C=C\C/C=C\CCCC(=O)O[C@H](COC(=O)CCCC/C=C\C/C=C\C/C=C\CCCCC)COP(=O)([O-])OCC[N+](C)(C)C [PC 18:3_20:4] (ion (formula + adduct): [C46H78NO8P+H] 1+) | 286.7 Å² | – | – |
| CCCCC/C=C\C/C=C\CCCCCCCC(=O)OC[C@@H](COC(=O)CCCCCCC/C=C\CCCCCC)OC(=O)CCCCCCCCCCCCCCCCC [TG 16:1_18:0_18:2] (ion (formula + adduct): [C55H100O6+NH4] 1+) | 319.7 Å² | 319.7 Å² | – |
| CC/C=C\C/C=C\C/C=C\C/C=C\C/C=C\C/C=C\CCC(=O)OC[C@@H](COC(=O)CCCCCCCCCCCCCCC)OC(=O)CCCCCCCCCCCCCCCCCCC [TG 16:0_20:0_22:6] (ion (formula + adduct): [C61H106O6+NH4] 1+) | 335.3 Å² | – | – |
| CCCCCCCCCCCCCCCCC(=O)OC[C@@H](COC(=O)CCCCCCCCCCCCC)OC(=O)CCCCCCCCCCCCCCC [TG 14:0_16:0_17:0] (ion (formula + adduct): [C50H96O6+NH4] 1+) | 311.5 Å² | – | – |
| CCCCCCCC/C=C\CCCCCCCCCCCC(=O)OC[C@@H](COC(=O)CCCCCCC/C=C\CCCCCCCC)OC(=O)CCCCCCC/C=C\CCCCCCCC [TG 18:1_18:1_22:1] (ion (formula + adduct): [C61H112O6+NH4] 1+) | – | 337.8 Å² | – |
